Data from the supplement of paper PMC11208160.

Experiment: recombinant barcode read abundance after kanamycin selection (control-corrected) (log10(CPM+1)); higher = more efficient recombination; sequences stand for … in AGTGCAGAGAAAATCGGCCAGTTTTCTCTGCCTGCAGTCCGCATGCCGT…AGATTTATGCAGCGGACTGCCTTTCTCCCAAAGTGATAAACCGGACAGTATCATGGACCGGTTTTCCCGGTAATCCGTATTTGCAAGGTTGGTTTCACT; site = the 11-nt target
Summary of the method: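 IS621 bridge RNA target-binding loops were paired with targets in a pooled library tested in E. coli. After co-electroporation with a donor plasmid, cells were plated in two replicates on chloramphenicol/ampicillin LB agar (control) and on chloramphenicol/ampicillin/kanamycin carrying 0.1 mM IPTG. Barcodes at recombinant junctions were counted as counts per million, averaged and control-corrected to give recombination efficiency. Values are log10(CPM+1).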
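Note: IS621 recombinase and bridge RNA in Escherichia coli cells.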

Row | Sequence | recombinant barcode read abundance (log10)
1 | CCTCAATCTTGGGTTCTAACCTGTTGCTT (site CCTCAATCTAA) | 0.224
2 | CCTCAATCTTGGGTTCTAACCTGTTGCTT (site CCTCACTCTAA) | 0.0745
3 | CCTCAATCTTGGGTTCTAACCTGTTGCTT (site CCTCAGTCTAA) | 0.0516
4 | CCTCAATCTTGGGTTCTAACCTGTTGCTT (site CCTCATTCTAA) | 0.144
5 | CCTCACTCTTGGGTTCTAACCTGTTGCTT (site CCTCAATCTAA) | 0.058
6 | CCTCACTCTTGGGTTCTAACCTGTTGCTT (site CCTCACTCTAA) | 1.2
7 | CCTCACTCTTGGGTTCTAACCTGTTGCTT (site CCTCAGTCTAA) | 0.00592
8 | CCTCACTCTTGGGTTCTAACCTGTTGCTT (site CCTCATTCTAA) | 0.0602
9 | CCTCAGACTTGGGTTCTAACCTGTTGCGA (site CCTCAGACTTC) | 2.79
10 | CCTCAGACTTGGGTTCTAACCTGTTGCGA (site CTTCAGACTTA) | 0.0629
11 | CCTCAGGCTTGGGTTCTAACCTGTTGCCA (site CCTCAGGCTAG) | 0.312
12 | CCTCAGGCTTGGGTTCTAACCTGTTGCCA (site CCTCAGGCTCG) | 0.0454
13 | CCTCAGGCTTGGGTTCTAACCTGTTGCCA (site CCTCAGGCTGG) | 0.217
14 | CCTCAGGCTTGGGTTCTAACCTGTTGCCA (site CCTCAGGCTTG) | 0.323
15 | CCTCAGGCTTGGGTTCTAACCTGTTGCCC (site CCTCAGGCTAG) | 0.0156
16 | CCTCAGGCTTGGGTTCTAACCTGTTGCCC (site CCTCAGGCTCG) | 0.0734
17 | CCTCAGGCTTGGGTTCTAACCTGTTGCCC (site CCTCAGGCTGG) | 0.651
18 | CCTCAGGCTTGGGTTCTAACCTGTTGCCC (site CCTCAGGCTTG) | 0.399
19 | CCTCAGGCTTGGGTTCTAACCTGTTGCCG (site CCTCAGGCTAG) | 0.0315
20 | CCTCAGGCTTGGGTTCTAACCTGTTGCCG (site CCTCAGGCTCG) | 0.229
21 | CCTCAGGCTTGGGTTCTAACCTGTTGCCG (site CCTCAGGCTGG) | 0.107
22 | CCTCAGGCTTGGGTTCTAACCTGTTGCCG (site CCTCAGGCTTG) | 0.125

Row | Sequence | recombinant barcode read abundance (log10)
23 | CCTCAGTCTTGGGTTCTAACCTGTTGCGA (site CCTCACTCTCC) | 0.0773
24 | CCTCAGTCTTGGGTTCTAACCTGTTGCGA (site CCTCAGTCTTC) | 1.81
25 | CCTCATTCTTGGGTTCTAACCTGTTGCTT (site CCTCAATCTAA) | 0.0648
26 | CCTCATTCTTGGGTTCTAACCTGTTGCTT (site CCTCACTCTAA) | 0
27 | CCTCATTCTTGGGTTCTAACCTGTTGCTT (site CCTCAGTCTAA) | 0.142
28 | CCTCATTCTTGGGTTCTAACCTGTTGCTT (site CCTCATTCTAA) | 0.199
29 | CCTCTGGCTTGGGTTCTAACCTGTTGCCT (site CCGCTGTCTAG) | 0.808
30 | CCTCTGGCTTGGGTTCTAACCTGTTGCCT (site CCTCTGGCTAG) | 0.514
31 | CCTGACTCTTGGGTTCTAACCTGTTGCCT (site CCTGAATCTAG) | 0.088
32 | CCTGACTCTTGGGTTCTAACCTGTTGCCT (site CCTGACTCTAG) | 0.85
33 | CCTGACTCTTGGGTTCTAACCTGTTGCCT (site CCTGAGTCTAG) | 0.0146
34 | CCTGACTCTTGGGTTCTAACCTGTTGCCT (site CCTGATTCTAG) | 0.195
35 | CCTGCGACTTGGGTTCTAACCTGTTGCCT (site CCTGCGACTAG) | 0.408
36 | CCTGCGACTTGGGTTCTAACCTGTTGCCT (site CCTGCGGCTAG) | 0.0687
37 | CCTGCTCCTTGGGTTCTAACCTGTTGCTT (site CCTACTCCTAG) | 0.0276
38 | CCTGCTCCTTGGGTTCTAACCTGTTGCTT (site CCTGCTCCTAA) | 0.393
39 | CCTGGGACTTGGGTTCTAACCTGTTGCGA (site CCTGGGACTAC) | 0.0343
40 | CCTGGGACTTGGGTTCTAACCTGTTGCGA (site CCTGGGACTCC) | 0.256
41 | CCTGGGACTTGGGTTCTAACCTGTTGCGA (site CCTGGGACTGC) | 0.961
42 | CCTGGGACTTGGGTTCTAACCTGTTGCGA (site CCTGGGACTTC) | 2.58
43 | CCTGGTCCTTGGGTTCTAACCTGTTGCCT (site CCTGGGGCTAG) | 0.16
44 | CCTGGTCCTTGGGTTCTAACCTGTTGCCT (site CCTGGTCCTAG) | 1.56

Row | Sequence | recombinant barcode read abundance (log10)
45 | CCTTAGACTTGGGTTCTAACCTGTTGCGT (site CCTAATACTAC) | 0.107
46 | CCTTAGACTTGGGTTCTAACCTGTTGCGT (site CCTTAGACTAC) | 1.8
47 | CCTTCTACTTGGGTTCTAACCTGTTGCCT (site CCTTCTACTAG) | 0.225
48 | CCTTCTACTTGGGTTCTAACCTGTTGCCT (site CCTTCTACTTA) | 0
49 | CCTTGCCCTTGGGTTCTAACCTGTTGCCT (site CATTGCCCTAG) | 0.0176
50 | CCTTGCCCTTGGGTTCTAACCTGTTGCCT (site CCTTGCCCTAG) | 0.667
51 | CCTTGCCCTTGGGTTCTAACCTGTTGCCT (site CGTTGCCCTAG) | 0.1
52 | CCTTGCCCTTGGGTTCTAACCTGTTGCCT (site CTTTGCCCTAG) | 0.117
53 | CCTTGTCCTTGGGTTCTAACCTGTTGCAG (site CCTTGTCCTCT) | 0.79
54 | CCTTGTCCTTGGGTTCTAACCTGTTGCAG (site CGTTGTCCTTT) | 0.144
55 | CCTTGTGCTTGGGTTCTAACCTGTTGCGT (site CCTTGTGCTAC) | 0.158
56 | CCTTGTGCTTGGGTTCTAACCTGTTGCGT (site TAGGTATCTCT) | 0.0915
57 | CCTTGTTCTTGGGTTCTAACCTGTTGCCT (site ACTTGTTCTAG) | 0.105
58 | CCTTGTTCTTGGGTTCTAACCTGTTGCCT (site CCTTGTTCTAG) | 0.0314
59 | CCTTGTTCTTGGGTTCTAACCTGTTGCCT (site GCTTGTTCTAG) | 0.14
60 | CCTTGTTCTTGGGTTCTAACCTGTTGCCT (site TCTTGTTCTAG) | 0.0322
61 | CCTTGTTCTTGGGTTCTAACCTGTTGCTA (site CCTTGTTCTTA) | 0.113
62 | CCTTGTTCTTGGGTTCTAACCTGTTGCTA (site TCGTGTTCTTA) | 0.149
63 | CGAAATGCTTGGGTTCTAACCTGTTGCCT (site CGAAATGCTAG) | 0.798
64 | CGAAATGCTTGGGTTCTAACCTGTTGCCT (site CGCAATGCTAG) | 0.0184
65 | CGAAATGCTTGGGTTCTAACCTGTTGCCT (site CGGAATGCTAG) | 0.035
66 | CGAAATGCTTGGGTTCTAACCTGTTGCCT (site CGTAATGCTAG) | 0.77

Row | Sequence | recombinant barcode read abundance (log10)
67 | CGAACGACTTGGGTTCTAACCTGTTGCTT (site CGAACGACTAA) | 0.0324
68 | CGAACGACTTGGGTTCTAACCTGTTGCTT (site CGAACGACTAG) | 0.113
69 | CGAACTACTTGGGTTCTAACCTGTTGCCT (site CGAACTACTAA) | 0.0404
70 | CGAACTACTTGGGTTCTAACCTGTTGCCT (site CGAACTACTAC) | 0.311
71 | CGAACTACTTGGGTTCTAACCTGTTGCCT (site CGAACTACTAG) | 0.0694
72 | CGAACTACTTGGGTTCTAACCTGTTGCCT (site CGAACTACTAT) | 0.316
73 | CGAATGTCTTGGGTTCTAACCTGTTGCGT (site CGAATGTCTAC) | 0.991
74 | CGAATGTCTTGGGTTCTAACCTGTTGCGT (site CGACTGCCTAC) | 0.0251
75 | CGACAGTCTTGGGTTCTAACCTGTTGCGT (site CGACAGTCTAC) | 2.41
76 | CGACAGTCTTGGGTTCTAACCTGTTGCGT (site CGGCAGTCTAC) | 0.153
77 | CGACCCTCTTGGGTTCTAACCTGTTGCCT (site AGACCCTCTAG) | 0.0358
78 | CGACCCTCTTGGGTTCTAACCTGTTGCCT (site CGACCCTCTAG) | 1.74
79 | CGACCCTCTTGGGTTCTAACCTGTTGCCT (site GGACCCTCTAG) | 0.17
80 | CGACCCTCTTGGGTTCTAACCTGTTGCCT (site TGACCCTCTAG) | 0.381
81 | CGACGAGCTTGGGTTCTAACCTGTTGCGG (site CCACGAGCTCC) | 0.352
82 | CGACGAGCTTGGGTTCTAACCTGTTGCGG (site CGACGAGCTCC) | 1.22
83 | CGAGATCCTTGGGTTCTAACCTGTTGCAT (site CGAGATCCTAT) | 1.29
84 | CGAGATCCTTGGGTTCTAACCTGTTGCAT (site CGAGGTACTAT) | 0
85 | CGAGATCCTTGGGTTCTAACCTGTTGCCT (site CGACATCCTAG) | 0.214
86 | CGAGATCCTTGGGTTCTAACCTGTTGCCT (site CGAGATCCTAG) | 0.678
